Test results taken from publication PMC5813187, “Enhanced Permeability and Binding Activity of Isobutylene‐Grafted Peptides” (Chembiochem, 2017).
Where a SMILES comes first, the peptide text is derived from it.

Columns and labels:
[1] = PAMPA, pH 7.4
[2] = Stability test in presence of GSH; type: physicochemical; conditions: around 1 mM peptide in H2O, 1 mM GSH, 37 °C, 48 h, HPLC
Experimental: (§1) GSH solution (to 1 mM) or 1 μL of reconstituted human plasma (Sigma -Aldrich), and the resulting
mixture vortexed for 30 s and then shaken at 37 °C. After 48 h, an aliquot of each reaction mixture was […]

[3] = Stability test in human plasma; type: in vitro ADME; conditions: 100 μL of around 1 mM peptide in H2O with 1 μL reconstituted human plasma (Sigma-Aldrich), 37 °C, 48 h, HPLC
Experimental: as §1
mixture vortexed for 30 s and then shaken at 37 °C. […]
DAD1 E, Sig=280,4 Ref =360,100 (SHUANG\ISOBUT YLENE STAPLED SOMATOST AT IN_PLASMA.D)

SMILES | Permeability [1] | −log P e [1] | stability in the presence of glutathione [2] | stability in the presence of glutathione ([2]; listed as Stapled Somatostatin) | stability in human plasma [3] | stability in human plasma ([3]; listed as Stapled Somatostatin)
CC(=O)N[C@@H](CS)C(=O)N1CCC[C@H]1C(=O)N[C@@H](CC(=O)O)C(=O)N[C@@H](Cc1ccccc1)C(=O)N[C@@H](CC(C)C)C(=O)N[C@@H](C)C(=O)N[C@@H](CS)C(N)=O [III] (Ac-CPDFLAC-NH2) | <0.01 nm/s | – | – | – | – | –
CC(=O)N[C@@H](CS)C(=O)N1CCC[C@H]1C(=O)N[C@@H](CC(C)C)C(=O)N[C@@H](CC(=O)O)C(=O)N[C@@H](Cc1ccccc1)C(=O)N[C@@H](C)C(=O)N[C@@H](CS)C(N)=O [II] (Ac-CPLDFAC-NH2) | 7.6 nm/s | 5.12 | – | – | – | –
C=C1CSC[C@@H](C(=O)O)NC(=O)[C@H](CO)NC(=O)[C@H]([C@@H](C)O)NC(=O)[C@H](Cc2ccccc2)NC(=O)[C@H]([C@@H](C)O)NC(=O)[C@H](CCCCN)NC(=O)[C@H](Cc2c[nH]c3ccccc23)NC(=O)[C@H](Cc2ccccc2)NC(=O)[C@H](Cc2ccccc2)NC(=O)[C@H](CC(N)=O)NC(=O)[C@H](CCCCN)NC(=O)[C@@H](NC(=O)CNC(=O)[C@H](C)N)CSC1 [stapled somatostatin] | – | – | fully stable | No significant degradation | fully stable | No significant degradation
